Laboratory results from patent US4575498A, “Method for restoring depleted purine nucleotide pools” (priority 1983, dated 1986).

Columns and labels:
[1] = Serum urate concentrations; type: in vivo, mongrel dogs; conditions: dog, in vivo; of 8 mmol infused, during 42 min; minimal estimate from serum urate increase and total body water; read-out: infused AICAriboside metabolized to purine nucleotides and subsequently catabolized
Protocol: (§1) Animal Preparation--Seven adult mongrel dogs were anesthetized intramuscularly with 40 mg of morphine sulfate and intravenously with 80 mg/kg of chloralose, an endotraceal tube was inserted, and ventilation was maintained with an Emerson volume-cycled respirator and 100% oxygen. The heart was exposed through a left lateral thoracotomy, polyvinyl chloride catheters (3-mm outer diameter) were inserted into the left atrium and into the aorta through the right femoral artery, and a Statham TTQ electromagnetic flow meter probe was positioned around the ascending aorta. The aortic pressure catheter was connected to a Statham P23Db transducer (Statham Instruments, Inc., Oxnard, CA) with the zero reference at the midchest level. Aortic flow was measured with a Howell Instruments Series 1000 Flowmeter, and stroke volume and cardiac output were calculated from the aortic flow measurement. All hemodynamic data were monitored continuously throughout the course of the study. In 5 of the animals, the skin of the left dorsal hindlimb was opened and the gastrocnemius muscle was identified for subsequent tissue sampling.
After hemodynamic parameters had stabilized, regional myocardial blood flow was measured by injecting radioactively labled microspheres. Tissue samples were obtained from the left ventricle and from the left gastrocnemius muscle. A venous blood sample was also obtained. AICAriboside (100 mM) was then infused into the left atrium at 1.9 ml/min. Repeat tissue samples were taken from the left ventricle at 15, 30 and 42 min. of infusion, and tissue samples were taken from the gastrocnemius muscle at 30 min. of infusion. Venous and arterial blood samples were also obtained at 42 min. of infusion, and regional myocardial blood flow was measured at 10 and 39 min. of AICAriboside infusion. AICAriboside infusion was terminated after 42 min., and tissue samples were taken from the left ventricle at 10, 20, 30 and 60 min. postinfusion and from the left gastrocnemius muscle at 2, 22 and 60 min. postinfusion. Venous blood samples were obtained at 10, 30 and 60 min. after AICAriboside infusion. In 4 of the 7 dogs, 400 mM formate was infused intravenously at the rate of 1.9 ml/min. for 42 min. prior to and during AICAriboside infusion. These same animals also received 6 mg of folinic acid as an intravenous bolus 30 min. prior to and 15 min. after initiating AICAriboside infusion.
Other Methods--Serum urate was determined by the enzymatic spectrophotometric method as previously described in Liddle et al., J. Lab. Clin. Med., 54, 909-913 (1959).

[2] = AICAriboside plasma concentration during infusion; type: in vivo, mongrel dogs; conditions: dog, after 42 min of infusion, 100 mM at 1.9 ml/min into left atrium
Protocol: as §1, with “In 5 of the animals, the skin of the left dorsal hindlimb was opened and the gastrocnemius muscle was identified for subsequent tissue sampling.” left out
After hemodynamic parameters had stabilized, regional myocardial blood flow was measured by injecting radioactively labled microspheres. […] Venous and arterial blood samples were also obtained at 42 min. of infusion, and regional myocardial blood flow was measured at 10 and 39 min. of AICAriboside infusion. […]

skeletal muscle = assay: AICAriboside infusion: nucleotide, nucleoside and base content of skeletal (gastrocnemius) muscle biopsies; type: in vivo, mongrel dogs; set-up: AMP / ADP / ATP / TAN / IMP / Hyp (hypoxanthine): unit not given beside the values; conditions: for TAN: total adenine nucleotide
postischemic myocardium = assay: Myocardial nucleotide and creatine phosphate content, coronary occlusion and reperfusion; type: in vivo, dogs
Protocol: Catheters were placed in the left atrium and aorta, and a snare positioned around the left anterior descending coronary artery in 15 open-chest dogs. Regional myocardial blood flow was measured and transmural tissue samples were obtained using known techniques. Blood flow measurements and tissue samples were obtained prior to and just before release of a 12-minute coronary occlusion. The chest was closed and the animals allowed to awaken. Twenty-four hours later, the animals were anesthetized, the chest opened, blood flow measured, and tissue samples obtained. No hemodynamic measurements were made on the animals.
In seven animals, 200 mM AICAriboside (Sigma Chemical Co.) was infused into the left atrial catether at either 14 μmol/min (n=2) or 37 μmol/min (n=5) beginning with coronary occlusion and continuing for 24 hours. Eight control animals were infused with an equal volume of saline over 24 hours.
Nucleotide and creatine phosphate analyses were performed by high performance liquid chromatography on acid extracts of the tissue as previously described. Nucleotide analysis is described in Example 1, and creatine phosphate analysis is described in Juengling and Kammermeier, Anal. Biochem., 102, 358-361 (1980).
All comparisons between AICAriboside and saline treated animals were done by unpaired analyses.

[3] = 2 min postinfusion, P < 0.05 vs control
[4] = 30 min of AICAriboside infusion
[5] = 30 min of AICAriboside infusion, P < 0.05 vs control
[6] = endo, 24 Hr postischemic (first column)
[7] = endo, 24 Hr postischemic (second column so headed)
[8] = epi, 24 Hr postischemic (first column)
[9] = epi, 24 Hr postischemic (second column so headed)
[10] = epi, 24 Hr postischemic (second column so headed), P < 0.05 vs saline

NC(=O)c1ncn([C@@H]2O[C@H](CO)[C@@H](O)[C@H]2O)c1N [AICAriboside, 5-amino-4-imidazolecarboxamide riboside]
metabolised at 0.7 h [1]: ≥ 25%
concentration at 0.7 h [2]: 336 ± 26 µM
AMP (skeletal muscle; 2 min postinfusion): 0.016 ± 0.002
Hyp (hypoxanthine) (skeletal muscle; 2 min postinfusion): 0.022 ± 0.009
Ino (inosine) (skeletal muscle; 2 min postinfusion): 0.024 ± 0.008
ADP (skeletal muscle; [3]): 0.65 ± 0.06
ATP (skeletal muscle; [3]): 4.68 ± 0.45
IMP (skeletal muscle; [3]): 0.046 ± 0.012
ADP (skeletal muscle; 22 min postinfusion): 0.59 ± 0.03
AMP (skeletal muscle; 22 min postinfusion): 0.014 ± 0.003
ATP (skeletal muscle; 22 min postinfusion): 4.34 ± 0.21
Hyp (hypoxanthine) (skeletal muscle; 22 min postinfusion): 0.021 ± 0.008
Ino (inosine) (skeletal muscle; 22 min postinfusion): 0.024 ± 0.011
IMP (skeletal muscle; 22 min postinfusion, P < 0.05 vs control): 0.045 ± 0.016
ADP (skeletal muscle; [4]): 0.53 ± 0.04
AMP (skeletal muscle; [4]): 0.016 ± 0.009
ATP (skeletal muscle; [4]): 3.92 ± 0.23
Hyp (hypoxanthine) (skeletal muscle; [5]): 0.024 ± 0.007
IMP (skeletal muscle; [5]): 0.050 ± 0.012
Ino (inosine) (skeletal muscle; [5]): 0.035 ± 0.009
ADP (skeletal muscle; 60 min postinfusion): 0.56 ± 0.05
AMP (skeletal muscle; 60 min postinfusion): 0.018 ± 0.007
ATP (skeletal muscle; 60 min postinfusion): 3.60 ± 0.41
Hyp (hypoxanthine) (skeletal muscle; 60 min postinfusion): 0.041 ± 0.017
Ino (inosine) (skeletal muscle; 60 min postinfusion): 0.055 ± 0.031
IMP (skeletal muscle; 60 min postinfusion, P < 0.05 vs control): 0.043 ± 0.015
increase in IMP content (skeletal muscle; AICAriboside infusion): 6-7 fold
guanine nucleotide content (skeletal muscle; not statistically significant): tended to increase
content of inosine and hypoxanthine (skeletal muscle; throughout infusion and up to 60 min thereafter): consistently elevated
content of NAD^+ (skeletal muscle; throughout infusion, did not vary): 0.32 ± 0.04 µmol/g
TAN (skeletal muscle; [3]): 5.34 ± 0.51
TAN (skeletal muscle; 22 min postinfusion): 4.94 ± 0.23
TAN (skeletal muscle; [4]): 4.47 ± 0.27
TAN (skeletal muscle; 60 min postinfusion): 4.18 ± 0.44
GTP content restoration (postischemic myocardium; 24 hours of reperfusion, saline 82% (epi), 78% (endo) of nonischemic levels): restored to nonischemic levels
ADP (postischemic myocardium; [6]): 0.78 ± 0.09 μmol/g wet wt
AMP (postischemic myocardium; [6]): 0.056 ± 0.019 μmol/g wet wt
CP (creatine phosphate) (postischemic myocardium; [6]): 7.8 ± 1.1 μmol/g wet wt
CTP (postischemic myocardium; [6]): 0.052 ± 0.005 μmol/g wet wt
NAD (postischemic myocardium; [6]): 0.57 ± 0.02 μmol/g wet wt
UTP (postischemic myocardium; [6]): 0.121 ± 0.013 μmol/g wet wt
IMP (postischemic myocardium; endo, 24 Hr postischemic (first column), P < 0.05 vs saline): 0.027 ± 0.007 μmol/g wet wt
ADP (postischemic myocardium; [7]): 0.75 ± 0.07 μmol/g wet wt
AMP (postischemic myocardium; [7]): 0.041 ± 0.005 μmol/g wet wt
CP (creatine phosphate) (postischemic myocardium; [7]): 6.9 ± 0.5 μmol/g wet wt
CTP (postischemic myocardium; [7]): 0.056 ± 0.004 μmol/g wet wt
NAD (postischemic myocardium; [7]): 0.60 ± 0.05 μmol/g wet wt
UTP (postischemic myocardium; [7]): 0.106 ± 0.011 μmol/g wet wt
IMP (postischemic myocardium; endo, 24 Hr postischemic (second column so headed), P < 0.05 vs saline): 0.017 ± 0.004 μmol/g wet wt
ADP (postischemic myocardium; endo, occlusion): 0.86 ± 0.06 μmol/g wet wt
AMP (postischemic myocardium; endo, occlusion): 0.089 ± 0.012 μmol/g wet wt
CP (creatine phosphate) (postischemic myocardium; endo, occlusion): 2.0 ± 0.3 μmol/g wet wt
CTP (postischemic myocardium; endo, occlusion): 0.016 ± 0.003 μmol/g wet wt
IMP (postischemic myocardium; endo, occlusion): 0.008 ± 0.002 μmol/g wet wt
NAD (postischemic myocardium; endo, occlusion): 0.45 ± 0.02 μmol/g wet wt
UTP (postischemic myocardium; endo, occlusion): 0.055 ± 0.007 μmol/g wet wt
increase in ATP content (postischemic myocardium; endo, previously ischemic region, 24 hours of reperfusion, saline 21%): 63%
ATP content vs saline-treated (postischemic myocardium; epi and endo, previously ischemic region, 24 hours of reperfusion, P<0.001): greater in the AICAriboside group
ADP (postischemic myocardium; [8]): 0.73 ± 0.05 μmol/g wet wt
AMP (postischemic myocardium; [8]): 0.048 ± 0.009 μmol/g wet wt
CP (creatine phosphate) (postischemic myocardium; [8]): 7.1 ± 0.5 μmol/g wet wt
CTP (postischemic myocardium; [8]): 0.051 ± 0.004 μmol/g wet wt
NAD (postischemic myocardium; [8]): 0.56 ± 0.03 μmol/g wet wt
UTP (postischemic myocardium; [8]): 0.104 ± 0.121 μmol/g wet wt
IMP (postischemic myocardium; epi, 24 Hr postischemic (first column), P < 0.05 vs saline): 0.025 ± 0.007 μmol/g wet wt
ADP (postischemic myocardium; [9]): 0.70 ± 0.05 μmol/g wet wt
AMP (postischemic myocardium; [9]): 0.036 ± 0.005 μmol/g wet wt
CP (creatine phosphate) (postischemic myocardium; [9]): 7.8 ± 0.5 μmol/g wet wt
CTP (postischemic myocardium; [9]): 0.051 ± 0.005 μmol/g wet wt
UTP (postischemic myocardium; [9]): 0.096 ± 0.008 μmol/g wet wt
IMP (postischemic myocardium; [10]): 0.015 ± 0.004 μmol/g wet wt
NAD (postischemic myocardium; [10]): 0.55 ± 0.02 μmol/g wet wt
ADP (postischemic myocardium; epi, occlusion): 0.99 ± 0.11 μmol/g wet wt
AMP (postischemic myocardium; epi, occlusion): 0.135 ± 0.045 μmol/g wet wt
CP (creatine phosphate) (postischemic myocardium; epi, occlusion): 2.9 ± 0.7 μmol/g wet wt
CTP (postischemic myocardium; epi, occlusion): 0.023 ± 0.003 μmol/g wet wt
IMP (postischemic myocardium; epi, occlusion): 0.007 ± 0.001 μmol/g wet wt
NAD (postischemic myocardium; epi, occlusion): 0.47 ± 0.03 μmol/g wet wt
UTP (postischemic myocardium; epi, occlusion): 0.061 ± 0.007 μmol/g wet wt
increase in ATP content (postischemic myocardium; epi, previously ischemic region, 24 hours of reperfusion, saline 2%): 41%
GTP content vs saline (postischemic myocardium; epicardium and endocardium of previously ischemic region, 24 hours of reperfusion, P<0.003): greater in the AICAriboside group
AMP or ADP content vs saline (postischemic myocardium; postischemic region): no detectable differences
UTP, CTP, or NAD^+ content vs saline (postischemic myocardium; postischemic region): no statistically significant differences
total adenine nucleotide content (ATP+ADP+AMP) vs saline (postischemic myocardium; postischemic region): greater in the AICAriboside group
creatine phosphate content restoration (postischemic myocardium; postischemic regions, both groups): restored to preocclusion levels
creatine phosphate fall at end of occlusion (postischemic myocardium; vs saline): fell to a comparable extent
percentage drop in ATP during ischemia (postischemic myocardium; vs saline): comparable in both groups
